Laboratory results from US20230295234A1, “ANTIMICROBIAL PEPTIDOMIMETICS” (SPEXIS AG, priority 2020, published 2023).
Bridge positions count the residues as written; N and C are the ends. Square brackets hold non-standard residues; d marks the D form. Peptide text beside a SMILES is read from it. dDab = NCC[C@@H](N)C(=O)O; Dab = NCC[C@H](N)C(=O)O; Nlys = NCCCCNCC(=O)O

Legend:
[1] = test system: Escherichia coli MCR-1 Af 45; conditions: MCR-1 Af 45
In short: (§1)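 Activity is measured against peptides serially diluted two-fold in water with 0.002% final Polysorbate 80. The cells are in cation-adjusted MHII broth at roughly 5×10^5 CFU/mL, prepared from a 0.5 McFarland suspension in 0.85% NaCl.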

[2] = test system: Escherichia coli ATCC 25922; conditions: ATCC 25922
In short: as §1

[3] = test system: Klebsiella pneumoniae SSI3010; conditions: SSI3010
In short: as §1

[4] = test system: human red blood cells (hRBC); experiment: Hemolysis of human red blood cells; type: cell-based; conditions: red cells of human, 1 h
In short: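 PBS-washed human red blood cells (20% v/v) were incubated with peptide at 200 μg/mL for 1 h at 37 °C with shaking. Supernatant OD was read at 540 nm after 8-fold dilution. Hemolysis is expressed as percent of the water control.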

SMILES | Escherichia coli MCR-1 Af 45 MIC [1] | Escherichia coli ATCC 25922 MIC [2] | Klebsiella pneumoniae SSI3010 MIC [3] | Hemolysis at 0.2 g/L [4]
CC[C@H](C)[C@H](NC(=O)[C@@H](NC(=O)[C@@H]1CCCN1C(=O)[C@@H](NC(=O)[C@@H]1CCCN1C(=O)[C@H](CCCCN)NC(=O)[C@@H](N)CCCCN)C(C)C)[C@@H](C)CC)C(=O)N[C@@H](Cc1ccc(O)cc1)C(=O)N[C@H]1CSSC[C@@H](C(=O)N[C@@H](CCN)C(=O)N[C@@H](CCCNC(=N)N)C(=O)N[C@@H](Cc2ccc(O)cc2)C(=O)O)NC(=O)[C@H](CCCCN)NC(=O)[C@@H](CCN)NC(=O)[C@H]([C@@H](C)O)NC(=O)CN(CCCN)C(=O)[C@H](CCCNC(=N)N)NC(=O)[C@H](CC(N)=O)NC1=O [Example 106] (HELM PEPTIDE1{K.K.P.V.P.I.I.Y.C.N.R.[NCCCN(CC(=O)[*:2])[*:1]].T.[NCC[C@@H](N[*:1])C(=O)[*:2]].K.C.[Dab].R.Y}$PEPTIDE1,PEPTIDE1,9:R3-16:R3$$$V2.0; N-terminus assumed) | 0.125 µg/mL | 0.25 µg/mL | 0.125 µg/mL | 0%
CC[C@H](C)[C@H](NC(=O)[C@@H](NC(=O)[C@@H]1CCCN1C(=O)[C@@H](NC(=O)[C@@H]1CCCN1C(=O)[C@H](CCCCN)NC(=O)[C@@H](N)CCCCN)C(C)C)[C@@H](C)CC)C(=O)N[C@@H](Cc1ccc(O)cc1)C(=O)N[C@H]1CSSC[C@@H](C(=O)N[C@@H](CCN)C(=O)N[C@@H](CCCNC(=N)N)C(=O)N[C@@H](Cc2ccc(O)cc2)C(=O)O)NC(=O)[C@H](CCCCN)NC(=O)[C@@H](CCN)NC(=O)[C@H]([C@@H](C)O)NC(=O)CN(CCN)C(=O)[C@H](CCCNC(=N)N)NC(=O)[C@H](CC(N)=O)NC1=O [Example 107] (HELM PEPTIDE1{K.K.P.V.P.I.I.Y.C.N.R.[NCCN(CC(=O)[*:2])[*:1]].T.[NCC[C@@H](N[*:1])C(=O)[*:2]].K.C.[Dab].R.Y}$PEPTIDE1,PEPTIDE1,9:R3-16:R3$$$V2.0; N-terminus assumed) | 0.25 µg/mL | 0.25 µg/mL | 0.25 µg/mL | 0%
CC[C@H](C)[C@H](NC(=O)[C@@H](NC(=O)[C@@H]1CCCN1C(=O)[C@@H](NC(=O)[C@@H]1CCCN1C(=O)[C@H](CCCCN)NC(=O)[C@@H](N)CCCCN)C(C)C)[C@@H](C)CC)C(=O)N[C@@H](Cc1ccc(O)cc1)C(=O)N[C@H]1CSSC[C@@H](C(=O)N[C@@H](CCN)C(=O)N(CCCN)CC(=O)N[C@@H](Cc2ccc(O)cc2)C(=O)O)NC(=O)[C@H](CCCCN)NC(=O)[C@@H](CCN)NC(=O)[C@H]([C@@H](C)O)NC(=O)[C@H](CCN)NC(=O)[C@H](CCCNC(=N)N)NC(=O)[C@H](CC(N)=O)NC1=O [Example 108] (HELM PEPTIDE1{K.K.P.V.P.I.I.Y.C.N.R.[Dab].T.[NCC[C@@H](N[*:1])C(=O)[*:2]].K.C.[Dab].[NCCCN(CC(=O)[*:2])[*:1]].Y}$PEPTIDE1,PEPTIDE1,9:R3-16:R3$$$V2.0) | ≤0.03125 µg/mL | 0.125 µg/mL | 0.0625 µg/mL | 0%
CC[C@H](C)[C@H](NC(=O)[C@@H](NC(=O)[C@@H]1CCCN1C(=O)[C@@H](NC(=O)[C@@H]1CCCN1C(=O)[C@H](CCCCN)NC(=O)[C@@H](N)CCCCN)C(C)C)[C@@H](C)CC)C(=O)N[C@@H](Cc1ccc(O)cc1)C(=O)N[C@H]1CSSC[C@@H](C(=O)N[C@@H](CCN)C(=O)N(CCCCN)CC(=O)N[C@@H](Cc2ccc(O)cc2)C(=O)O)NC(=O)[C@H](CCCCN)NC(=O)[C@@H](CCN)NC(=O)[C@H]([C@@H](C)O)NC(=O)[C@H](CCN)NC(=O)[C@H](CCCNC(=N)N)NC(=O)[C@H](CC(N)=O)NC1=O [Example 109] (HELM PEPTIDE1{K.K.P.V.P.I.I.Y.C.N.R.[Dab].T.[NCC[C@@H](N[*:1])C(=O)[*:2]].K.C.[Dab].[NCCCCN(CC(=O)[*:2])[*:1]].Y}$PEPTIDE1,PEPTIDE1,9:R3-16:R3$$$V2.0) | 0.0625 µg/mL | 0.0625 µg/mL | 0.125 µg/mL | 0%
CC[C@H](C)[C@H](NC(=O)[C@@H](NC(=O)[C@@H]1CCCN1C(=O)[C@@H](NC(=O)[C@@H]1CCCN1C(=O)[C@H](CCCCN)NC(=O)[C@@H](N)CCCCN)C(C)C)[C@@H](C)CC)C(=O)N[C@@H](Cc1ccc(O)cc1)C(=O)N[C@H]1CSSC[C@@H](C(=O)N[C@@H](CCN)C(=O)N(CCN)CC(=O)N[C@@H](Cc2ccc(O)cc2)C(=O)O)NC(=O)[C@H](CCCCN)NC(=O)[C@@H](CCN)NC(=O)[C@H]([C@@H](C)O)NC(=O)[C@H](CCN)NC(=O)[C@H](CCCNC(=N)N)NC(=O)[C@H](CC(N)=O)NC1=O [Example 110] (HELM PEPTIDE1{K.K.P.V.P.I.I.Y.C.N.R.[Dab].T.[NCC[C@@H](N[*:1])C(=O)[*:2]].K.C.[Dab].[NCCN(CC(=O)[*:2])[*:1]].Y}$PEPTIDE1,PEPTIDE1,9:R3-16:R3$$$V2.0) | 0.125 µg/mL | 0.125 µg/mL | 0.125 µg/mL | 0%
CC[C@H](C)[C@H](NC(=O)[C@@H](NC(=O)[C@@H]1CCCN1C(=O)[C@@H](NC(=O)[C@@H]1CCCN1C(=O)[C@H](CCCCN)NC(=O)[C@@H](N)CCCCN)C(C)C)[C@@H](C)CC)C(=O)N[C@@H](Cc1ccc(O)cc1)C(=O)N[C@H]1CSSC[C@@H](C(=O)N[C@@H](CCN)C(=O)N(CCCNC(=N)N)CC(=O)N[C@@H](Cc2ccc(O)cc2)C(=O)O)NC(=O)[C@H](CCCCN)NC(=O)[C@@H](CCN)NC(=O)[C@H]([C@@H](C)O)NC(=O)[C@H](CCN)NC(=O)[C@H](CCCNC(=N)N)NC(=O)[C@H](CC(N)=O)NC1=O [Example 111] (HELM PEPTIDE1{K.K.P.V.P.I.I.Y.C.N.R.[Dab].T.[NCC[C@@H](N[*:1])C(=O)[*:2]].K.C.[Dab].[N=C(N)NCCCN(CC(=O)[*:2])[*:1]].Y}$PEPTIDE1,PEPTIDE1,9:R3-16:R3$$$V2.0; N-terminus assumed) | 0.125 µg/mL | 0.25 µg/mL | 0.25 µg/mL | 0%
CC[C@H](C)[C@H](NC(=O)[C@@H](NC(=O)[C@@H]1CCCN1C(=O)[C@@H](NC(=O)[C@@H]1CCCN1C(=O)[C@H](CCCCN)NC(=O)CNCCCCN)C(C)C)[C@@H](C)CC)C(=O)N[C@@H](Cc1ccc(O)cc1)C(=O)N[C@H]1CSSC[C@@H](C(=O)N[C@@H](CCN)C(=O)N[C@@H](CCCNC(=N)N)C(=O)N[C@@H](Cc2ccc(O)cc2)C(=O)O)NC(=O)[C@H](CCCCN)NC(=O)[C@@H](CCN)NC(=O)[C@H]([C@@H](C)O)NC(=O)CN(CCCCN)C(=O)[C@H](CCCNC(=N)N)NC(=O)[C@H](CC(N)=O)NC1=O [Example 112] (H-[Nlys]KPVPIIYCNR[Nlys]T[dDab]KC[Dab]RY-OH; disulfide 9-16) | 0.25 µg/mL | 0.25 µg/mL | 0.125 µg/mL | 0%
CC[C@H](C)[C@H](NC(=O)[C@@H](NC(=O)[C@@H]1CCCN1C(=O)[C@@H](NC(=O)[C@@H]1CCCN1C(=O)[C@H](CCCCN)NC(=O)CNCCN)C(C)C)[C@@H](C)CC)C(=O)N[C@@H](Cc1ccc(O)cc1)C(=O)N[C@H]1CSSC(C)(C)[C@@H](C(=O)N[C@@H](CCN)C(=O)N[C@@H](CCCNC(=N)N)C(=O)N[C@@H](Cc2ccc(O)cc2)C(=O)O)NC(=O)[C@H](CCCCN)NC(=O)[C@@H](CCN)NC(=O)[C@H]([C@@H](C)O)NC(=O)[C@H](CCN)NC(=O)[C@H](CCCNC(=N)N)NC(=O)[C@H](CC(N)=O)NC1=O [Example 113] (HELM PEPTIDE1{[NCCNCC(=O)[*:2]].K.P.V.P.I.I.Y.C.N.R.[Dab].T.[NCC[C@@H](N[*:1])C(=O)[*:2]].K.[Pen].[Dab].R.Y}$PEPTIDE1,PEPTIDE1,9:R3-16:R3$$$V2.0) | 0.125 µg/mL | 0.0625 µg/mL | 0.125 µg/mL | 0%
CC[C@H](C)[C@H](NC(=O)[C@@H](NC(=O)[C@@H]1CCCN1C(=O)[C@@H](NC(=O)[C@@H]1C[C@@H](N)CN1C(=O)[C@H](CCCCN)NC(=O)[C@@H](N)CCCCN)C(C)C)[C@@H](C)CC)C(=O)N[C@@H](Cc1ccc(O)cc1)C(=O)N[C@@H]1C(=O)N[C@@H](CC(N)=O)C(=O)N[C@@H](CCCNC(=N)N)C(=O)N[C@@H](CCN)C(=O)N[C@@H]([C@@H](C)O)C(=O)N[C@H](CCN)C(=O)N[C@@H](CCCCN)C(=O)N[C@H](C(=O)N[C@@H](CCN)C(=O)N[C@@H](CCCNC(=N)N)C(=O)N[C@@H](Cc2ccc(O)cc2)C(=O)O)CSSC1(C)C [Example 114, Lys-Lys-Pro((4R)NH2)-Val-Pro-Ile-Ile-Tyr-Pen-Asn-Arg-^Dab-Thr-^DDab-Lys-Cys-Dab-Arg-Tyr] (HELM PEPTIDE1{K.K.[N[C@@H]1C[C@@H](C(=O)[*:2])N([*:1])C1].V.P.I.I.Y.[Pen].N.R.[Dab].T.[NCC[C@@H](N[*:1])C(=O)[*:2]].K.C.[Dab].R.Y}$PEPTIDE1,PEPTIDE1,9:R3-16:R3$$$V2.0) | 0.0625 µg/mL | 0.0625 µg/mL | 0.0625 µg/mL | 0%
